Entries after “also recorded” stand apart in the source; their conditions may differ. Where two headings read alike, the source gives them in different places.
What was measured:
Rat liver DHFR = molecular target: T1, Rat liver DHFR (Rattus norvegicus, UniProt Q920D2); test: Spectrophotometric DHFR assay, rat liver DHFR; type: biochemical; details: 37°C; (95% confidence limits)
T1 construct: Rat liver DHFR was prepared from livers of female Sprague-Dawley rats; from tissue; host or cells: liver of female Sprague-Dawley rats
T1 sequence (Q920D2 1-187): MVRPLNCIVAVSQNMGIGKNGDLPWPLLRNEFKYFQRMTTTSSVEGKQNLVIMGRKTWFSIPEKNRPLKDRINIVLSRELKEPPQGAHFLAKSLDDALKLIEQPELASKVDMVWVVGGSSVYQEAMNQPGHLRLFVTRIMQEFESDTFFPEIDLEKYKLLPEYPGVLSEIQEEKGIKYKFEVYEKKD
Experimental: Rat liver DHFR was prepared from livers of female Sprague-Dawley rats. The 100,000× g supernate was partially purified by ammonium sulfate precipitation; the 50–90% precipitate was re-dissolved and stored in liquid nitrogen.
The spectrophotometric assay for DHFR was optimized for temperature and concentration of substrate and cofactor for each enzyme. […] The reaction was continuously recorded for 3 minutes. […] The low background activity in the absence of dihydrofolic acid was subtracted from all rates.
(§1) DHFR was assayed with several concentrations of inhibitor to produce rates ranging from 1 to 90% of the uninhibited rate. At least three concentrations were required for calculation; most curves contained five concentrations.

Pc DHFR = molecular target: T2, Pc DHFR (Pneumocystis carinii, UniProt P16184); test: Spectrophotometric DHFR assay, Pneumocystis carinii DHFR; type: biochemical; details: 37°C; (95% confidence limits); read-out: Pc DHFR IC50
T2 construct: made in house; host or cells: Escherichia coli
T2 sequence (P16184 1-206): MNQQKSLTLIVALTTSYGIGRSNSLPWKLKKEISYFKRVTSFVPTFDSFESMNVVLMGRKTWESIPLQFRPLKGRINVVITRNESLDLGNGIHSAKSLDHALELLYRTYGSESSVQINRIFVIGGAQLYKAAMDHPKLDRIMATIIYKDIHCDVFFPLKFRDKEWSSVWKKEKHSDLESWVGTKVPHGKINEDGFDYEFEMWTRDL
Description: DHFR from Pneumocystis carinii was produced as the recombinant enzyme expressed in Escherichia coli. […] DHFR from T. gondii was isolated directly from RH strain T. gondii grown in culture on Chinese hamster ovary cells lacking DHFR (CHO/dhfr^-, American Type Culture Collection 3952 CL). Organisms were introduced into a confluent monolayer and harvested when the mammalian cells were lysed. The 100,000× g supernate was stored in liquid nitrogen.
The spectrophotometric assay for DHFR was optimized for temperature and concentration of substrate and cofactor for each enzyme. The standard assay contained Na phosphate buffer pH 7.4 (40.7 mM), 2-mercaptoethanol (8.9 mM), NADPH (0.117 mM), dihydrofolic acid (0.09 mM), KCL (150 mM), and sufficient enzyme to produce a change in OD340 of 0.035/minute at 37°C. The reaction was continuously recorded for 3 minutes. […] The low background activity in the absence of dihydrofolic acid was subtracted from all rates.
as §1

Mav DHFR = molecular target: T3, Mav DHFR (Mycobacterium avium, UniProt O30463); test: Spectrophotometric DHFR assay, Mycobacterium avium-intracellulare DHFR; type: biochemical; details: 37°C; (95% confidence limits)
T3 construct: the bacteria were centrifuged, sonicated, and the 100,000 Xg supernate was stored under liquid nitrogen until assay; endogenous in cells; host or cells: M. avium-intracellulare clinical isolate (serovar 4), Indiana University School of Medicine
T3 sequence (O30463 1-181): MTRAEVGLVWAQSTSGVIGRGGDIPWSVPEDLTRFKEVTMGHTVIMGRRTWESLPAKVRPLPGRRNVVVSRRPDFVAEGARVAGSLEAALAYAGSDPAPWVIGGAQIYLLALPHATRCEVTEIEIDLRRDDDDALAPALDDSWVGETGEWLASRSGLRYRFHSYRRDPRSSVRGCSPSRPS
Experimental: Mycobacterium avium-intracellulare used in these studies was a clinical isolate (serovar 4) from Indiana University School of Medicine, Department of Pathology. The strain was maintained on Lowenstein-Jensen slants (Baxter Scientific) grown at room temperature. To produce enzyme, the organism was grown in Middlebrook 7H-9 liquid medium at 37°C to an OD660 of 0.5 to 0.7, which took several weeks. At harvest, the bacteria were centrifuged, sonicated, and the 100,000 Xg supernate was stored under liquid nitrogen until assay. These supernates contained both DHFR and dihydroopteroate synthetase activity.
The spectrophotometric assay for DHFR was optimized for temperature and concentration of substrate and cofactor for each enzyme. The standard assay contained Na phosphate buffer pH 7.4 (40.7 mM), 2-mercaptoethanol (8.9 mM), NADPH (0.117 mM), dihydrofolic acid (0.09 mM), KCL (150 mM), and sufficient enzyme to produce a change in OD340 of 0.035/minute at 37°C. The reaction was continuously recorded for 3 minutes. Activity under these conditions was linear with enzyme concentration over a 4-fold range. The low background activity in the absence of dihydrofolic acid was subtracted from all rates.
as §1

[1] = system: tester strains TA97, TA98, TA100, TA102 and TA1535; test: Ames Test with and without microsomal activation
Experimental: A 42-day toxicology study in CD-1 mice at doses up to 98 mg/kg evaluating well-being, weight gain, and histopathology was performed. […] 7.5 mg/kg was established as the NOAEL (No Observed Adverse Effect Level). JPC-2056 and JPC-2067 were assayed in the Ames Test with and without microsomal activation with tester strains TA97, TA98, TA100, TA102 and TA1535.

[2] = system: human foreskin fibroblasts (HFF); test: Toxicity for host cells, 3H thymidine incorporation by non-confluent HFF; type: cell-based; details: increasing concentrations, tested concomitantly with T. gondii
PfDHFR = PfDHFR (Plasmodium falciparum, UniProt Q8I1R6); test: Plate reader DHFR assay, recombinant P. falciparum DHFR; type: biochemical
Description: DHFR from T. gondii prepared as above was also directly compared to purified recombinant P. falciparum DHFR (pfDHFR) and purified recombinant human DHFR (hDHFR). The hDHFR was from pDFR plasmid. The enzyme was purified following ammonium sulfate precipitation, methotrexate:agarose affinity chromatography, and finally a Superdex 200 size exclusion column. The pfDHFR isolation methods were those reported previously,[44]. […] The same buffer as used in the other assays comparing T. gondii DHFR with DHFRs from rat liver P. carinii and M. avium intracellulare was used but the maximal activity, temperature, and length of observation were adjusted for assays on the specific plate reader. […] The reaction was setup at 23°C, the plate loaded, and the OD340 recorded at 20 second intervals for 10 minutes. The first 8 minutes were used to generate linear fit slopes in Excel. […] Results are expressed as the percent of control activity versus log concentration of inhibitor. Prism 5.0 was used to generate curves from 12 different concentrations of inhibitor using a non-linear fit method.

Sequence of PfDHFR (Q8I1R6 entry or part of it): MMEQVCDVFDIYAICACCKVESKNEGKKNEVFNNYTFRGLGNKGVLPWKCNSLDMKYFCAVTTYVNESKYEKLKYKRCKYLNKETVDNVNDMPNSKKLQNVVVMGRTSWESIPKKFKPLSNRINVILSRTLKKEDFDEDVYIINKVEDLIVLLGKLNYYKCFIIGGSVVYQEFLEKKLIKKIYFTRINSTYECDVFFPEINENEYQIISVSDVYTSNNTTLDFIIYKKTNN

In the case of `CC1(C)N=C(N)N=C(N)N1OCCCOc1ccc(OC(F)(F)F)cc1Cl` [JPC-2067-B, 4,6-diamino-1,2-dihydro-2,2-dimethyl-1-(3′(2-chloro-, 4-trifluoromethoxyphenoxy)propyloxy)-1,3,5-triazine], the IC50 (Rat liver DHFR) is reported as 22.2 nM, the IC50 (Pc DHFR) is reported as 3.93 nM and the IC50 (Mav DHFR) is reported as 3.75 nM. For the same compound, the “Ames Test, with and without microsomal activation” value [1] was “No activity”, the “Ames w/o Activation” value [1] was “Not Active ^*” and the “Ames with Activation” value [1] was “Not Active ^*”. For the same compound, the “Toxicity for host cells, uptake of tritiated thymidine by nonconfluent fibroblasts” value [2] was “no toxic effect on host cells; also recorded: no toxicity”, the IC50 (PfDHFR; recombinant, 23°C, (95% Confidence Intervals), read-out: PfDHFR IC50) was 3.88 nM and the IC50 (PfDHFR; text to Figure 5 and Table 2, read-out: IC50 for P. falciparum DHFR) was 3.9 nM.

— article PMC2254147, “Novel Triazine JPC-2067-B Inhibits Toxoplasma gondii In Vitro and In Vivo” (PLoS Neglected Tropical Diseases, 2008)
